Assay results published in patent US5620973A, “Tetracyclic condensed heterocyclic compounds and their use” (priority 1993, dated 1997).
Counter-ions that a name gives are not always drawn. Like-named read-outs stand apart in the source and are kept apart here.

Columns and labels:
Acetylcholinesterase = molecular target: T1, Acetylcholinesterase (Rattus norvegicus, UniProt P37136); experiment: biochemical; parameters: species or system male Wistar rat
T1 construct: using the S1 fraction of a male Wistar rat cerebral cortex homogenate as a source of cholinesterase; from tissue; host or cells: male Wistar rat cerebral cortex homogenate, S1 fraction
Protocol: The cholinesterase inhibitory activity of the compound of this invention was evaluated using (acetyl[[^3 H])-acetylcholine. Thus, using the S1 fraction of a male Wistar rat cerebral cortex homogenate as a source of cholinesterase, (acetyl[^3 H])-acetylcholine as a substrate, and the compound of this invention as a test substance, the system was incubated for 30 minutes. The reaction was then stopped and a toluenic scincillator was added. After shaking, [^3 H]-acetic acid produced and transferred into the toluene layer was counted with a liquid scincillation counter to estimate the cholinesterase inhibitory activity of the test substance.

[1] = test system: norepinephrine (NE) reuptake; experiment: monoamine reuptake inhibitory activity, [^3 H]-norepinephrine (NE); type: biochemical, male JCl: Wistar rats; conditions: [^3 H]-NE 11 nM; P2 pellet of rat cerebral cortex and hippocampus; 37° C., 5 minutes; read-out: Monoamine uptake inhibitory activity IC50, NE
Protocol: (§1) The monoamine reuptake inhibitory activity of the compound of this invention was evaluated using [^3 H]-norepinephrine (NE) and [^3 H]-serotonin(5-HT).
(§2) Thus, the brain was enuleated from male JCl: Wistar rats (aged 9-13 weeks) and the cerebral cortex and the hippocampus were isolated. The tissue was homogenized (Potter, 5 strokes) with about 10-15 volumes of ice-cooled 0.32M sucrose and centrifuged at 1.000×g for 10 minutes. The supernatant was further centrifuged at 20,000×g for 20 minutes to provide a pellet (P2). This pellet was suspended in Krebs-Ringer bicarbonate solution (KRB) (KRB: 116 mM NaCl, 4.8 mM KCl, 1.3 mM CaCl2, 1,2 mM MgSO4, 1,2 mM NaH2 PO4, 25 mM NaHCO3, 0.1 mM EDTA-2Na, 11.1 mM D-glucose, 0.11 mM L-ascorbic acid, 0.01 mM pargyline-HCl; 95% O2 /5% CO2) and aliquots of the suspension were used for assays.
(§3) The test compound (10 μl as dissolved in DMSO at 100 times the final concentration) was mixed with 900 μl of the P2 suspension and the mixture was preincubated at 37° C. for 5 minutes. Then, 100 μl of [^3 H]-NE (final concentration 11 nM) or [^3 H]-5-HT (final concentration 10 nM) was added and the mixture was incubated at 37° C. for 5 minutes. […] The filter was transferred to a minature vial, 4 ml of scintillator was added, and the radioactivity was counted with a liquid scintillation counter. […]

[2] = test system: serotonin (5-HT) reuptake; experiment: monoamine reuptake inhibitory activity, [^3 H]-serotonin (5-HT); type: biochemical, male JCl: Wistar rats; conditions: [^3 H]-5-HT 10 nM; P2 pellet of rat cerebral cortex and hippocampus; 37° C., 5 minutes; read-out: Monoamine uptake inhibitory activity IC50, 5-HT
Protocol: as §1, §2, §3

[3] = cited from earlier work; for anti-senile dementia activity: Int. J. Clin. Pharmacol. Ther. Toxicol. 29, 23-37, 1991
[4] = S1 fraction of male Wistar rat cerebral cortex homogenate, 30 minutes incubation, read-out: Acetylcholinesterase inhibitory activity IC50

T1 sequence (P37136 32-614): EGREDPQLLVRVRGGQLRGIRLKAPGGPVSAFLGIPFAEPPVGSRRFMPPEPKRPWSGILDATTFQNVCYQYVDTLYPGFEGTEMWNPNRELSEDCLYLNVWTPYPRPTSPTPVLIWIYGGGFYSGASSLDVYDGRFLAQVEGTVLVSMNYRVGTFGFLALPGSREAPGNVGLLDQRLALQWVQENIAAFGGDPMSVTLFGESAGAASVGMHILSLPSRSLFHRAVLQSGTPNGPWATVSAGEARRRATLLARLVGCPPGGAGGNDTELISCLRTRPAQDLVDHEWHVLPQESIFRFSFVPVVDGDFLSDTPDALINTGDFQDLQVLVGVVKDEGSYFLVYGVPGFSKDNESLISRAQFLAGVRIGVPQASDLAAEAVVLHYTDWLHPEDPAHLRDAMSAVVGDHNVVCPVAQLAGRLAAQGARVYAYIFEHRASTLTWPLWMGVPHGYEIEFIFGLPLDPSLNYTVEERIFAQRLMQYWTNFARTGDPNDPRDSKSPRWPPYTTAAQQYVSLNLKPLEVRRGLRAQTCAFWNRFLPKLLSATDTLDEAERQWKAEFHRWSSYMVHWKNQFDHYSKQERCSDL

Compound `O=C(CCC1CCN(Cc2ccccc2)CC1)c1ccc2c(c1)CN1C(=O)c3ccccc3C1CC2` (stereo not drawn) [Example 4, 3-[3-[1-(Phenylmethyl)-4-piperidinyl]-1-oxopropyl]-7,11b,12,13-tetrahydro-5H-isoindolo[2,1-b][2]benzazepin-7-one hydrochloride] has an IC50 (Acetylcholinesterase) of 2.4 nM.

In the case of `O=C(CCN1CCN(Cc2ccccc2)CC1)c1ccc2c(c1)CN1C(=O)c3ccccc3C1CC2` (stereo not drawn) [Example 2-1], the IC50 [1] is reported as 1040 nM, the IC50 [2] is reported as 70 nM and the IC50 (Acetylcholinesterase; [4]) is reported as 16.4 nM.

Work on `O=C(CCN1CCN(Cc2cccc(Cl)c2)CC1)c1ccc2c(c1)CN1C(=O)c3ccccc3C1CC2` (stereo not drawn) [Example 6-2] yielded an IC50 (Acetylcholinesterase; [4]) of 65.5 nM.

For `O=C(CCN1CCN(Cc2ccccc2)CC1)c1cc2c3c(c1)C1CCCCC1N3C(=O)CC2` (stereo not drawn) [Example 1, 5-[3-[4-(Phenylmethyl)-1-piperazinyl]-1-oxopropyl]-2,3,6b,7,8,9,10,10a-octahydro-1H-pyrido[3,2,1-jk]carbazol-6-one dihydrochloride], the IC50 (Acetylcholinesterase; [4]) was 77.5 nM.

With `O=C(CCC1CCN(Cc2ccccc2)CC1)c1cc2c3c(c1)C1CCCCC1N3C(=O)CC2` (stereo not drawn) [Example 7, 5-[3-[1-(Phenylmethyl)-4-piperidinyl]1-oxopropyl]-2,3,6b, 7,8,9,10,10a-octahydro-1H-pyrido[3,2,1-jk]carbazol-6-one fumarate] the IC50 (Acetylcholinesterase) was 7.93 nM.

In the case of `Nc1c2c(nc3ccccc13)CCCC2` [THA, tacrine], the anti-senile dementia activity [3] is listed as “have been found to have anti-senile dementia activity” and the hepatic impairment ([3]; background) is listed as “severe hepatic impairment is often associated”.

For `CN(C)CCCN1c2ccccc2CCc2ccccc21` [Imipramine, imipramine, reference compound], the IC50 [1] was 1120 nM and the IC50 [2] was 63 nM.

For `CNC(=O)Oc1ccc2c(c1)[C@]1(C)CCN(C)[C@@H]1N2C` (stereo in doubt) [Physostigmine, physostigmine], the anti-senile dementia activity [3] is given as “have been found to have anti-senile dementia activity”, the duration of action ([3]; background) is given as “short duration of action” and the toxic potential ([3]; background) is given as “high toxic potential”.

Compound `O=C(CCN1CCN(Cc2cccc(F)c2)CC1)c1ccc2c(c1)CN1C(=O)c3ccccc3C1CC2` (stereo not drawn) [Example 6-3] has an IC50 (Acetylcholinesterase; [4]) of 17.4 nM.
